One may read the IC50 as the point on the concentration scale where inhibition reaches its midpoint. The term GI50 denotes the concentration at which growth is held to half of that of the control.

Experimental findings from US9580390B2, “Indazole compounds as kinase inhibitors and method of treating cancer with same” (University Health Network, priority 2011, dated 2017) are described below.

Bounds are passed on as bounds.

The target in one assay is T1, human TTK (Homo sapiens, UniProt P33981).
T1 construct: amino terminal GST fusion of full length human TTK; purchased Invitrogen
T1 sequence (P33981 1-857): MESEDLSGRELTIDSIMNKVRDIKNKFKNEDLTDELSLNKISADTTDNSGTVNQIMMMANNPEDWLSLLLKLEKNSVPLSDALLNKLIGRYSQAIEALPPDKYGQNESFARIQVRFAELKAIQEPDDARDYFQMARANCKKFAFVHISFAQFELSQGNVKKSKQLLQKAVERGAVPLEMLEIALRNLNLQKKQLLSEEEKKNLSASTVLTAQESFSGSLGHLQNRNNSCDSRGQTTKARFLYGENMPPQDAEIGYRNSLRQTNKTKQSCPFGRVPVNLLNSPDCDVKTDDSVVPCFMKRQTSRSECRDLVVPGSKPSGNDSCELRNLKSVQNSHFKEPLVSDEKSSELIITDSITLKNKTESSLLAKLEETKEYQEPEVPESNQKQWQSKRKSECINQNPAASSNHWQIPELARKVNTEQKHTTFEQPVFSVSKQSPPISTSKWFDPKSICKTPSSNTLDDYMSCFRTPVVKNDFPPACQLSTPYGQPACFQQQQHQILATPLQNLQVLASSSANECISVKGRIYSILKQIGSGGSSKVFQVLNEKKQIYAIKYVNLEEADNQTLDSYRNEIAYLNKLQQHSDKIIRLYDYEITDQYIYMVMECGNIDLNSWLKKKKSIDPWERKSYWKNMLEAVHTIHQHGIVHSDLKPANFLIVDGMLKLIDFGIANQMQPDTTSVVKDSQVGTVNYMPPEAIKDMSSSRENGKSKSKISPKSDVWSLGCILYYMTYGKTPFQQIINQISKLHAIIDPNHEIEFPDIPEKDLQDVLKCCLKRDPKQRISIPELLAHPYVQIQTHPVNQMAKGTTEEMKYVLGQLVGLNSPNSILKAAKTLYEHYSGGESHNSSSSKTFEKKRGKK
The assay is described as follows: TTK inhibition assay (indirect ELISA). In kind it is biochemical. Conditions: read-out: TTK IC50 Range.

The next assay relates to Breast cancer cells. The assay is described as follows: Cancer cell line growth inhibition (SRB assay). Conditions: Homo sapiens; MDA-MB-468; read-out: Cancer Cell Line GI50 Range MDA-MB-468. The assay is classed as cell-based. Background: Sulforhodamine B stains cellular protein and so reports cell mass.
Assay [1] deals with colon cancer cells (HCT116). In words: Cancer cell line growth inhibition (SRB assay). The assay is classed as cell-based. As to conditions: Homo sapiens, HCT-116; read-out: Cancer Cell Line GI50 Range HCT116.
The test system of assay [2] is ovarian cancer cells (PA-1). The assay is described as follows: Cancer cell line growth inhibition (SRB assay). The assay is classed as cell-based. As to conditions: Homo sapiens, PA-1; read-out: Cancer Cell Line GI50 Range PA-1.

With `CCC(CC)(CNC(=O)c1ccc2[nH]nc(-c3ccc(OC4CCN(C)CC4)cc3)c2c1)c1ccccc1` [Example A440, N-(2-ethyl-2-phenylbutyl)-3-(4-((1-methylpiperidin-4-yl)oxy)phenyl)-1H-indazole-5-carboxamide], the IC50 on human TTK is under 100 nM. Moreover, the GI50 (with Breast cancer cells; in assay [1]; in assay [2]) was 100 to 500 nM throughout.

As to `CN1C2CCC1CC(Oc1ccc(-c3n[nH]c4ccc(C(=O)NC(c5ccccn5)C5CCCC5)cc34)cc1)C2` (stereo not shown) [Example A398, N-(cyclopentyl(pyridin-2-yl)methyl)-3-(4-((8-methyl-8-azabicyclo[3.2.1]octan-3-yl)oxy)phenyl)-1H-indazole-5-carboxamide], at human TTK, the IC50 is under 100 nM. The GI50 (in the assay on Breast cancer cells; in assay [1]; in assay [2]) was under 100 nM throughout.

As to `CN1CC2(CC(O)c3cc(-c4n[nH]c5ccc(C(=O)N[C@H](c6ccccc6)C6CC6)cc45)ccc3O2)C1` (stereo partly drawn) [Example A256, N-((S)-cyclopropyl(phenyl)methyl)-3-(4′-hydroxy-1-methylspiro(azetidine-3,2-chroman]-6′-yl)-1H-indazole-5-carboxamide], the IC50 at human TTK fell in the range of 100 to 500 nM. In addition, the GI50 (with Breast cancer cells; in assay [1]; in assay [2]) was over 500 nM throughout.

Regarding `CN1[C@@H]2CC[C@H]1C[C@@H](Oc1ccc(-c3n[nH]c4ccc(C(=O)NCC5(c6ccccn6)CC5)cc34)cc1)C2` [Example A488], the IC50 at human TTK is under 100 nM. The GI50 (in the assay on Breast cancer cells; in assay [1]; in assay [2]) was over 500 nM throughout.

For `CCC(CC)C(NC(=O)c1ccc2[nH]nc(-c3ccc(OC4CCN(C5COC5)CC4)cc3)c2c1)c1ccccn1` (stereo not shown) [Example A292, N-(2-ethyl-1-(pyridin-2-yl)butyl)-3-(4-((1-(oxetan-3-yl)piperidin-4-yl)oxy)phenyl)-1H-indazole-5-carboxamide], the IC50 on human TTK was under 100 nM. Also, the GI50 (in the assay on Breast cancer cells; in assay [1]; in assay [2]) was under 100 nM in each case.

As for `Cn1ccc(=O)c2cc(-c3n[nH]c4ccc(C(=O)N[C@H](c5ccccn5)C5CCCC5)cc34)ccc21` [Example A240, (S)-N-(cyclopentyl(pyridin-2-yl)methyl)-3-(1-methyl-4-oxo-1,4-dihydroquinolin-6-yl)-1H-indazole-5-carboxamide], the IC50 at human TTK is under 100 nM. Further, the GI50 (in the assay with Breast cancer cells; in assay [1]; in assay [2]) was over 500 nM throughout.

Take `CN1CC2(CC(=O)c3cc(-c4n[nH]c5ccc(C(=O)N[C@H](c6ccccc6)C6CC6)cc45)ccc3O2)C1` [Example A254, (S)-N-(cyclopropyl(phenyl)methyl)-3-(1-methyl-4′-oxospiro[azetidine-3,2′-chroman]-6′-yl)-1H-indazole-5-carboxamide]: on human TTK, the IC50 is under 100 nM. For the same compound, the GI50 with Breast cancer cells is over 500 nM; in assay [1], 100 to 500 nM; in assay [2], 100 to 500 nM.

As for `O=C(NCC1(c2cccnc2)CC1)c1ccc2[nH]nc(-c3ccc(N4CCOCC4)cc3)c2c1` [Example A461, 3-(4-morpholinophenyl)-N-((1-(pyridin-3-yl)cyclopropyl)methyl)-1H-indazole-5-carboxamide], the IC50 at human TTK was under 100 nM. Besides, the GI50 (in the assay on Breast cancer cells; in assay [1]; in assay [2]) was over 500 nM throughout.

Consider `O=C(N[C@H](c1ccccn1)C1CC1)c1ccc2[nH]nc(-c3ccc4c(c3)C(=O)CC3(CCOCC3)O4)c2c1` [Example A262, (S)-N-(cyclopropyl(pyridin-2-yl)methyl)-3-(4-oxo-2′,3′,5′,6′-tetrahydrospiro[chroman-2,4′-pyran]-6-yl)-1H-indazole-5-carboxamide], for which, at human TTK, the IC50 was under 100 nM. Moreover, the GI50 (with Breast cancer cells; in assay [1]; in assay [2]) was 100 to 500 nM in each case.

`O=C(N[C@@H](c1ccccn1)C1CC1)c1ccc2[nH]nc(-c3ccc(N4CC(N5CCOCC5)C4)cc3)c2c1` [Example A316, (R)-N-(cyclopropyl(pyridin-2-yl)methyl)-3-(4-(3-morpholinoazetidin-1-yl)phenyl)-1H-indazole-5-carboxamide]: on human TTK, the IC50 was under 100 nM. Also, the concentration for 50% growth inhibition (GI50) (in the assay with Breast cancer cells; in assay [1]; in assay [2]) was 100 to 500 nM throughout.

For the compound `CN1C2CCC1CC(Oc1ccc(-c3n[nH]c4ccc(C(=O)N[C@H](c5ccccn5)C5CCCC5)cc34)cc1)C2` (stereo partly drawn) [Example A252, N-((S)-cyclopentyl(pyridin-2-yl)methyl)-3-(4-(((1R,3R,5S)-8-methyl-8-azabicyclo[3.2.1]octan-3-yl)oxy)phenyl)-1H-indazole-5-carboxamide], the IC50 at human TTK was under 100 nM. Also, the GI50 (in the assay with Breast cancer cells; in assay [1]; in assay [2]) was under 100 nM each time.

As to `CC(C)C[C@H](NC(=O)c1ccc2[nH]nc(-c3ccc(N4CCN(C5COC5)CC4)cc3)c2c1)c1ccccc1` [Example A371, (S)-N-(3-methyl-1-phenylbutyl)-3-(4-(4-(oxetan-3-yl)piperazin-1-yl)phenyl)-1H-indazole-5-carboxamide], on human TTK, the IC50 is under 100 nM. The GI50 with Breast cancer cells is 100 to 500 nM; in assay [1], under 100 nM; in assay [2] it was under 100 nM.

Turning to `CC(C)[C@H](NC(=O)c1ccc2[nH]nc(-c3ccc(OC4CC5CCC(C4)N5C=O)nc3)c2c1)c1ccccc1Cl` (stereo partly drawn) [Example A354, N-((S)-1-(2-chlorophenyl)-2-methylpropyl)-3-(6-(((1R,3R,5S)-8-formyl-8-azabicyclo[3.2.1]octan-3-yl)oxy)pyridin-3-yl)-1H-indazole-5-carboxamide], the IC50 on human TTK was under 100 nM. The GI50 (in the assay with Breast cancer cells; in assay [1]; in assay [2]) was 100 to 500 nM in each case.

With `CN1[C@@H]2CC[C@H]1C[C@H](Oc1ccc(-c3n[nH]c4ccc(C(=O)NC(c5ccccc5)C5CC5)cc34)cc1)C2` (stereo partly drawn) [Example A286, N-(cyclopropyl(phenyl)methyl)-3-(4-(((1R,3S,5S)-8-methyl-8-azabicyclo[3.2.1]octan-3-yl)oxy)phenyl)-1H-indazole-5-carboxamide], the IC50 at human TTK was under 100 nM. Besides, the GI50 (in the assay with Breast cancer cells; in assay [1]; in assay [2]) was under 100 nM throughout.

For the compound `O=C(NC(c1ccccc1)C1CC1)c1ccc2[nH]nc(-c3ccc(O[C@H]4C[C@H]5CC[C@@H](C4)N5)cc3)c2c1` (stereo partly drawn) [Example A375, 3-(4-((1R,3R,5S)-8-azabicyclo[3.2.1]octan-3-yloxy)phenyl)-N-(cyclopropyl(phenyl)methyl)-1H-indazole-5-carboxamide], the IC50 on human TTK was under 100 nM. In addition, the results for the GI50 (in the assay with Breast cancer cells; in assay [1]; in assay [2]) were 100 to 500 nM, under 100 nM and under 100 nM, respectively.

With `O=CN1CCC2(CC1)CC(=O)c1cc(-c3n[nH]c4ccc(C(=O)N[C@H](c5ccccn5)C5CC5)cc34)ccc1O2` [Example A263, (S)-N-(cyclopropyl(pyridin-2-yl)methyl)-3-(1′-formyl-4-oxospiro[chroman-2,4′-piperidin]-6-yl)-1H-indazole-5-carboxamide], the IC50 on human TTK is under 100 nM. Besides, the values for the GI50 (in the assay on Breast cancer cells; in assay [1]; in assay [2]) were 100 to 500 nM, 100 to 500 nM and under 100 nM, respectively.

Consider `O=C(NCC1(CN2CCOCC2)CCCCC1)c1ccc2[nH]nc(-c3ccc(N4CCOCC4)cc3)c2c1` [Example A509, N-((1-(morpholinomethyl)cyclohexyl)methyl)-3-(4-morpholinophenyl)-1H-indazole-5-carboxamide], for which, at human TTK, the IC50 is under 100 nM. In addition, the GI50 (in the assay with Breast cancer cells; in assay [1]; in assay [2]) was over 500 nM each time.

Turning to `CC(C)C(NC(=O)c1ccc2[nH]nc(-c3ccc(OC4CN(C)C4)cc3)c2c1)c1ccccc1Cl` (stereo not shown) [Example A289, N-(1-(2-chlorophenyl)-2-methylpropyl)-3-(4-((1-methylazetidin-3-yl)oxy)phenyl)-1H-indazole-5-carboxamide], the IC50 on human TTK is under 100 nM. Also, the GI50 with Breast cancer cells was over 500 nM; in assay [1] it was 100 to 500 nM; in assay [2], 100 to 500 nM.

`CCC(CC)(CNC(=O)c1ccc2[nH]nc(-c3ccc(OC4CCN(C5COC5)CC4)cc3)c2c1)c1ccccc1` [Example A439, N-(2-ethyl-2-phenylbutyl)-3-(4-((1-(oxetan-3-yl)piperidin-4-yl)oxy)phenyl)-1H-indazole-5-carboxamide]: the IC50 at human TTK is under 100 nM. Further, the GI50 (in the assay with Breast cancer cells; in assay [1]; in assay [2]) was 100 to 500 nM throughout.
